Data: patent US20250179509A1, “NATIVE DELIVERY OF BIOMOLECULES INTO PLANT CELLS USING IONIC COMPLEXES WITH CELL-PENETRATING PEPTIDES” (BASF Plant Science Company GmbH, priority 2018, published 2025)

Legend:
rice callus cells = test: CLSM observation of intracellular uptake and distribution of Citrine after vacuum/pressure infiltration; assay type: cell-based, Oryza sativa, cv. Nipponbare; conditions: for distribution of Citrine in callus cell: 5-day callus cell, 72-hours incubation, FM 4-64 stain, 3D images and optical sections
Procedure: Mature dry seeds of Oryza sativa, cv. Nipponbare (O. sativa) were surface-sterilized with 70% ethanol (v/v) for 1 min, followed by 30 min in 50% (v/v) commercial bleach with rotation at 20 rpm. Seeds were then washed 8-10 times with sterile distilled water and dried on autoclaved Kimwipes (3 mm) for 5 min. For callus induction, sixteen seeds were inoculated petri plate on callus induction medium (N6D) and incubated at 30° C. with continuous light in a plant bio-incubator (TOMY CLE-303 cultivation chamber Tokyo, Japan). N6D was prepared using basal 30 g/L […], 0.3 g/L casamino acid, 2.8 g/L L-proline, 2 mg/L 2,4-dichlorophenoxyacetic acid (2,4-D), 4.0 g/L CHO (N6) basal salt mix, gelled with 4 g/L phytagel and pH adjusted to 5.8 before autoclaving. After 5-day cultivation, the callus was cut into approximately four equal parts. This callus was used as the 5-day callus in this work. On the other hand, after 21-day cultivation, the self-shedding callus was collected and used as the 21-day callus. For the callus regeneration test, the callus was cut to small pieces in different sizes, then transferred onto a regeneration medium and incubated at 30° C. with continuous light for 7 days. […] The regeneration medium was prepared based on using 4 g/L MS powder with vitamin, supplied with 30 g/L sorbitol, 30 g/L sucrose, 4 g/L casamino acid, 2 mg/L 2,4-D and 2 mg/L 1-Naphthaleneacetic acid (NAA), gelled with 4 g/L phytagel and pH was adjusted to 5.8 before autoclaving. The chemicals used in this research are purchased from Sigma (Sigma-Aldrich, MO, USA) and Wako (Wako, Pure Chemical, Tokyo, Japan).
(§1) 10 mg rice callus (5-day or 21-day) was immersed in 100 μL of fresh prepared complex solutions in a screw cap tube. Subsequently depressurized the solution at −0.08 MPa for 1 min and compressed at +0.08 MPa for 1 min. After this treatment, the callus was transferred onto the N6D medium, and incubated at 30° C. in the dark until use.
Confocal laser scanning microscopy (CLSM, ZeissLSM 700, Carl Zeiss, Oberkochen, Germany) was used to evaluate the intracellular uptake of CPP-FP-Citrine every 24 hours. Before the observation by CLSM, the callus on N6D was transferred into a 1.5 mL Eppendorf tube and washed thoroughly with Milli-q water contains 0.1% tween 20 for five times to remove the Citrine on cell surface. Thereafter, the callus was cut into tiny pieces and mounted on glass slides, then covered with coverslips. CPP-FP-Citrine was detected by setting the excitation at 488 nm and emission in a range of 505-600 nm. For distinguish plasma membrane region and cytoplasm region, the callus was additionally incubated with FM4-64 (20 µM, 20 min at RT) for cell membrane stain, and detected by setting the excitation at 405 nm and emission at 560-700. Furthermore, quantification of the intracellular Citrine by western blot immunoassay. After 72-hour post-infiltration, the protein was extracted from rice callus. The rice callus was frozen with liquid nitrogen, and then grinding in a mortar into powder. 50 μl of 10 mM Tris-HCL buffer (pH 7.4) containing 10 μL Halt protease inhibitor cocktail (Thermo Scientific, MA, USA) was added to 0.1 g callus powder, mixed well and incubated on ice for 1 hour. After centrifuge at […], 4° C. for 20 min, the supernatant was collected and used as the cell extraction. 10 μL of the cell extraction was subjected to a 4-20% sodium dodecyl sulfate polyacrylamide electrophoresis gels (SDS-PAGE, Bio-Rad, California, USA). Proteins were then transferred onto a PVDF membranes (Bio-Rad, California, USA) using a semi-dry transfer cell (Bio-Rad, California, USA) at 10 V for 1 hour. The immunodetection of Citrine was performed with a rabbit polyclonal antibody (GFP antibody NB600-308, Novus Biologicals, Co, USA, dilution to 1:2000). IgG goat anti-rabbit antibody conjugated with horse radish peroxidase was used as a secondary antibody (goat anti-rabbit IgG H&L HRP ab6789, Abcam, Cambridge, UK, dilution to 1:20000). […]

5-day callus cell = test: Western blot quantification of Citrine extracted from rice callus; assay type: cell-based, Oryza sativa, cv. Nipponbare; conditions: 72-hour post-infiltration, with vacuum and pressure treatment, area intensity compared with positive control
Procedure: as §1
Confocal laser scanning microscopy (CLSM, ZeissLSM 700, Carl Zeiss, Oberkochen, Germany) was used to evaluate the intracellular uptake of CPP-FP-Citrine every 24 hours. Before the observation by CLSM, the callus on N6D was transferred into a 1.5 mL Eppendorf tube and washed thoroughly with Milli-q water contains 0.1% tween 20 for five times to remove the Citrine on cell surface. […] CPP-FP-Citrine was detected by setting the excitation at 488 nm and emission in a range of 505-600 nm. For distinguish plasma membrane region and cytoplasm region, the callus was additionally incubated with FM4-64 (20 µM, 20 min at RT) for cell membrane stain, and detected by setting the excitation at 405 nm and emission at 560-700. Furthermore, quantification of the intracellular Citrine by western blot immunoassay. […]
We next quantified the Citrine from the cell extraction by western blot. […] As controls, the samples with infiltration of Milli-q water and Citrine only without vacuum and pressure treatment were also analyzed (FIG. 7a). […]

[1] = Secondary structure contents of peptides (DichroWeb analysis); assay type: physicochemical; conditions: various solvents, reducing or non-reducing conditions
Procedure: FIG. 20: Secondary structure contents of BPCH7, BPLH7, and BPKH in various solvents (reducing or non-reducing conditions). Analysis was performed using DichroWeb (CONTIN, dataset 4).

rice cells = test: Delivery of DNA into rice cells by linear versus cyclic peptide; assay type: cell-based
Procedure: BP2 is a cyclic peptide due to its disulphide bond between the two cysteins. This structure improve binding to proteins, peptides and DNA and improves cell survival (reduced cell toxicity) and regeneration. These advantages of the cyclic structure were analysed by studying a linear, non-cyclic, version of BP2 with regards to its potential to delivery.

rice callus = test: Delivery of dsRed plasmid DNA into rice callus and dsRed expression; assay type: cell-based; conditions: dsRed plasmid DNA (SEQ ID NO: 1) combined with peptide, after 4 days
Procedure: CPP (BP100 KH9) and dsRed plasmid DNA (Seq ID NO: 1) or Cy3 labelled PNA (peptide nucleic acid) (1:10 molar ratio) were mixed together and incubated for 30 minutes at 4° C. After incubation the volume was made up to 100 μl with water.
Callus from 5-7 days old rice seeds were used for the experiments. To 10 mg of callus, CPP/DNA or CPP/PNA mixture was added and vacuum infiltrated for 15 mins, washed with distilled water and plated on N6 medium.

## KKLFKKILKYLHHCRGHTVHSHHHCIR (BP2 amino acid sequence, synthetic) [BP100CH7]
Rice callus cells
  distribution of Citrine in callus cell: located in cell membrane and the cytoplasm regions of the cells
Rice callus cells; 5-day callus cells, P/C ratio of 100
  Citrine fluorescence inside of the cells observed, time after infiltration: 72 h
5-day callus cell
  Citrine delivered: 0.043 ng/mg callus
[1]; listed as BP2
  secondary structure: higher helix and strand order

## KKLFKKILKYLHHCRGHTVHSHHHCIR [LH7, linear, non-cyclic version of BP2, reference compound]
[1]
  secondary structure: higher degree of unordered structure
Rice cells
  activity in delivery DNA into rice cells: significantly lower activity

## KKLFKKILKYLKHKHKHKHKHKHKHKHKH (BP1 amino acid sequence, synthetic) [BP100 (KH)9]
Rice callus cells
  distribution of Citrine in callus cell: located in cell membrane and the cytoplasm regions of the cells
Rice callus cells; 5-day callus cells, P/C ratio of 1
  Citrine fluorescence inside of the cells observed, time after infiltration: 72 h
Rice callus cells; 5-day callus cells, P/C ratio of 10
  Citrine fluorescence inside of the cells first observed, time after infiltration: 48 h
Rice callus cells; 21-day rice callus, P/C ratio of 10
  Citrine florescence observed, time after infiltration: 48 h
5-day callus cell
  Citrine delivered: 0.042 ng/mg callus
Rice callus
  dsRed expression (red fluorescence): visible red fluorescence
[1]
  secondary structure: higher helix and strand order
